Results published in US9630894B2, “Energy efficient method and apparatus for the extraction of biomolecules from dilute aqueous solution” (DYNASEP INC., priority 2012, dated 2017).
Entries after “also recorded” stand apart in the source; their conditions may differ.

What was measured:
fermentation cultures [1] = test: DME toxicity study: viability by colony forming units (CFU) after 24 hours; type: cell-based
Procedure: (§1) Toxicity studies were performed to determine the effects of DME on fermentation cultures. Cell growth, viability and solvent production were measured to determine what effect DME has on fermentation cultures. Cell growth was monitored by absorption measurements taken at 600 nm (A600). Viability was measured by counting the colony forming units (CFU) after 24 hours. Solvent production was quantified by HPLC.
(§2) The first round of testing was performed using media that had been sparged with DME gas at 23° C. The amount of DME absorbed into the media was measured by weight gain after sparging. […] Two control cultures were also used for direct comparison of cultures with and without the presence of DME.

fermentation cultures [2] = test: DME toxicity study: solvent production / metabolite analysis by HPLC; type: cell-based; conditions: for Acetate concentration / Acetoin concentration / Acetone concentration / Butanol concentration / Butyrate concentration / Ethanol concentration / Glucose concentration: 196 hours after inoculation
Procedure: as §1, §2
A second round of testing was performed at lower DME concentrations. The concentration of DME varied from 0.7 wt. % to 2.9 wt. %. Cell densities were measured between 3 and 64 hours after inoculation. […] Based on the solvent measurements in Table 8 and Table 9 solvent production was also unaffected by DME at 0.7 wt. %. […] This is apparent after examination of the cell density and solvent production for samples 1-5, 2-1, 2-4 and 2-5 in comparison to the control samples 1-B and 2-B.

[3] = culture 2-1, weight % DME printed as ?

## COC [DME, dimethyl ether]
Fermentation cultures [1]; DME approximately 3 wt. %, cultures 1-2 and 1-3
  effect on cell viability (CFU): not toxic
Fermentation cultures [1]; DME approximately 4 wt. %, second set of cultures
  effect on cell viability (CFU): toxicity issues
Fermentation cultures [1]; culture 1-1, […] DME
  CFU/ml after 24 hours: 770 CFU/ml
Fermentation cultures [1]; culture 1-2, 3.48% DME
  CFU/ml after 24 hours: >10000 CFU/ml
Fermentation cultures [1]; culture 1-3, […] DME
  CFU/ml after 24 hours: 200000 CFU/ml
Fermentation cultures [1]; [3]
  CFU/ml after 24 hours: 0 CFU/ml
Fermentation cultures [1]; culture 2-2, 3.92% DME
  CFU/ml after 24 hours: 4480 CFU/ml
Fermentation cultures [1]; culture 2-3, 3.72% DME
  CFU/ml after 24 hours: 130 CFU/ml
Fermentation cultures [2]; DME at 0.7 wt. %
  effect on solvent production: unaffected; also recorded: no noticeable effect
Fermentation cultures [2]; culture 1-2, 3.48% DME
  Metabolite conc. Final Acetate: 42.01 mM
  Metabolite conc. Final Acetoin: 0.00 mM
  Metabolite conc. Final Acetone: 0.00 mM
  Metabolite conc. Final Butanol: 0.00 mM
  Metabolite conc. Final Butyrate: 101.72 mM
  Metabolite conc. Final Ethanol: 0.00 mM
  Metabolite conc. Final Glucose: 410.70 mM
Fermentation cultures [2]; culture 1-2, DME 18.1 g/L
  Acetate concentration: 45.7 mM
  Acetoin concentration: 1.7 mM
  Acetone concentration: 4.9 mM
  Butanol concentration: 11.7 mM
  Butyrate concentration: 80.8 mM
  Ethanol concentration: 1.9 mM
  Glucose concentration: 381.5 mM
Fermentation cultures [2]; culture 1-3, […] DME
  Metabolite conc. Final Acetate: 47.46 mM
  Metabolite conc. Final Acetoin: 0.00 mM
  Metabolite conc. Final Acetone: 8.33 mM
  Metabolite conc. Final Butanol: 14.84 mM
  Metabolite conc. Final Butyrate: 89.52 mM
  Metabolite conc. Final Ethanol: 0.00 mM
  Metabolite conc. Final Glucose: 380.17 mM
Fermentation cultures [2]; [3]
  Metabolite conc. Final Acetate: 33.46 mM
  Metabolite conc. Final Acetoin: 0.00 mM
  Metabolite conc. Final Acetone: 0.00 mM
  Metabolite conc. Final Butanol: 0.00 mM
  Metabolite conc. Final Butyrate: 94.00 mM
  Metabolite conc. Final Ethanol: 0.00 mM
  Metabolite conc. Final Glucose: 432.02 mM
Fermentation cultures [2]; culture 2-2, 3.92% DME
  Metabolite conc. Final Acetate: 42.17 mM
  Metabolite conc. Final Acetoin: 0.00 mM
  Metabolite conc. Final Acetone: 0.00 mM
  Metabolite conc. Final Butanol: 0.00 mM
  Metabolite conc. Final Butyrate: 91.28 mM
  Metabolite conc. Final Ethanol: 0.00 mM
  Metabolite conc. Final Glucose: 418.43 mM
Fermentation cultures [2]; culture 2-2, DME 6.8 g/L
  Acetone concentration: 10.2 mM
  Butanol concentration: 23.6 mM
  Butyrate concentration: 55.7 mM
  Ethanol concentration: 3.8 mM
Fermentation cultures [2]; culture 2-3, 3.72% DME
  Metabolite conc. Final Acetate: 34.46 mM
  Metabolite conc. Final Acetoin: 0,00 mM
  Metabolite conc. Final Acetone: 0.00 mM
  Metabolite conc. Final Butyrate: 86.91 mM
  Metabolite conc. Final Ethanol: 0.00 mM
Fermentation cultures [2]; culture 2-3, DME 6.6 g/L
  Acetate concentration: 44.6 mM
  Acetoin concentration: 5.6 mM
  Acetone concentration: 9.6 mM
  Butanol concentration: 21.6 mM
  Butyrate concentration: 57.3 mM
  Ethanol concentration: 3.8 mM
  Glucose concentration: 338.3 mM
Fermentation cultures [2]; culture 2-4, DME 29.1 g/L
  Acetate concentration: 42.5 mM
  Acetoin concentration: 0.0 mM
  Acetone concentration: 2.1 mM
  Butanol concentration: 3.7 mM
  Butyrate concentration: 94.8 mM
  Ethanol concentration: 0.0 mM
  Glucose concentration: 403.0 mM
Fermentation cultures [2]; culture 2-5, DME 27.9 g/L
  Acetate concentration: 41.7 mM
  Acetoin concentration: 0.0 mM
  Acetone concentration: 4.3 mM
